For one assay, the target named is T1, Calpain I (Homo sapiens, UniProt P07384).
T1 sequence (P07384 1-714): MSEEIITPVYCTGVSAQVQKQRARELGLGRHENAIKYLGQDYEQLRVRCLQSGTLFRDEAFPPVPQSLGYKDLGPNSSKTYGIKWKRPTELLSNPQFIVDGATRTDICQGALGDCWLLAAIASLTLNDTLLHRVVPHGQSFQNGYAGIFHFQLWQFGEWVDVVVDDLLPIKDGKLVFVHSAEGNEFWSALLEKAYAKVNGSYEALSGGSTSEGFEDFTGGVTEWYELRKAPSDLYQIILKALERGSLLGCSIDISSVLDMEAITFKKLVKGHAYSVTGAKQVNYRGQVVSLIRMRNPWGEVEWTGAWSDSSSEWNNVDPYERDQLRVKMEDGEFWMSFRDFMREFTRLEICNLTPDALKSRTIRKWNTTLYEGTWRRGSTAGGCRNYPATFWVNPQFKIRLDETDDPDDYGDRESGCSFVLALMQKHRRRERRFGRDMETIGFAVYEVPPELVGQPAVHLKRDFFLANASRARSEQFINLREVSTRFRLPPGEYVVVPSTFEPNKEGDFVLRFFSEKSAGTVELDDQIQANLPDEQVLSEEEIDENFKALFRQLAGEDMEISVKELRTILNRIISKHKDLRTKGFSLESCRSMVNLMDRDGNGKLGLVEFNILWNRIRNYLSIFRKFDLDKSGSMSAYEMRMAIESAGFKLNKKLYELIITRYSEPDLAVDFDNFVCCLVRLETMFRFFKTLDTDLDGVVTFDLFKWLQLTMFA
T1 sequence (P04632 1-268 partner): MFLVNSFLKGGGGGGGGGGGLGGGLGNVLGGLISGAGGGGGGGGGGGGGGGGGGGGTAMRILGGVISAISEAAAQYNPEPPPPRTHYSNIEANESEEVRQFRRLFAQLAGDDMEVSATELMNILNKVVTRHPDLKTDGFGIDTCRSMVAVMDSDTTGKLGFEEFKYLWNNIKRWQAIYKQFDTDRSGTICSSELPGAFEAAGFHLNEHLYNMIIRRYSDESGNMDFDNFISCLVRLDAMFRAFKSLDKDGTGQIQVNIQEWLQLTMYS
Put plainly: Inhibition and rate of inactivation of cysteine protease (calpain I) activity, Succ-Leu-Tyr-MNA substrate hydrolysis. Conditions: 0.1 uM compound; percent decrease in rate of substrate hydrolysis relative to no inhibitor.
Experimental: To evaluate inhibitory activity, stock solutions (40 times concentrated) of each compound to be tested were prepared in 100% anhydrous DMSO and 5 µl of each inhibitor preparation were aliquoted into each of three wells of a 96 well plate. […] To start the reaction, 20 µl of 50 mM CaCl2 in assay buffer was added to all wells of the plate, excepting three, which were used as background signal baseline controls. Substrate hydrolysis was monitored every 5 minutes for a total of 30 minutes. Substrate hydrolysis in the absence of inhibitor was linear for up to 15 minutes.
Inhibition of calpain I activity was calculated as the percent decrease in the rate of substrate hydrolysis in the presence of inhibitor (vi) relative to the rate in its absence (vo). Comparison between vo and vi was made within the linear range for substrate hydrolysis. […] Apparent second order rate constants were determined from analysis of reaction progress curves under pseudo-first order conditions. Each determination represents the mean of three or more independent single cuvette analyses continually monitored via a Perkin-Elmer LS50B spectrofluorimeter.
Consider “(3S)-2-[3-[(N-Benzyloxycarbonyl-L-leucyl)amino]-2-oxo-4-phenylbutyl] 1H-phosphindoline 2-oxide [Example 62]”, for which the “% Inhib. @ 0.1 uM” value was 34%.

Still in this assay, the particulars now being: apparent second order rate constant of inactivation from reaction progress curves under pseudo-first order conditions; mean of three or more determinations.
On to `CCOP(=O)(CC(=O)[C@H](Cc1ccccc1)NC(=O)[C@H](CC(C)C)NC(=O)OCc1ccccc1)c1ccccc1` (stereo partly drawn) [Example 64, Ethyl (3S)-[3-[(N-benzyloxycarbonyl-L-leucyl)amino]-2-oxo-4-phenylbutyl] (phenyl)phosphinate], for which the “kobs/I x 10^-3 M^-1s^-1” value is listed as 4 x 10^-3 M^-1s^-1.
On the same count and under the same terms, as for “(3S)-[3-[(N-Benzyloxycarbonyl-L-leucyl)amino]-2-oxo-4-phenylbutyl] [3-(morpholin-4-yl)propyl](phenyl)phosphinate [Example 61]”, the figure is 17 x 10^-3 M^-1s^-1.

The assay is the same for the next values; noted with them: read-out: % Inhib. @ 0.1 uM.
With `CC(C)C[C@H](NC(=O)OCc1ccccc1)C(=O)N[C@@H](Cc1ccccc1)C(=O)COP1(=O)CC=CC1` [Example 63, (3S)-1-[[3-[(N-Benzyloxycarbonyl-L-leucyl)amino]-2-oxo-4-phenylbutyl]oxy]phosphol-3-ene 1-oxide], the inhibition at 0.1 µM came out at 22%.
On the same count and under the same terms, in the case of `CCOP(=O)(CC(=O)[C@H](Cc1ccccc1)NC(=O)[C@H](CC(C)C)NC(=O)OCc1ccccc1)c1ccccc1` (stereo partly drawn) [Example 64, Ethyl (3S)-[3-[(N-benzyloxycarbonyl-L-leucyl)amino]-2-oxo-4-phenylbutyl] (phenyl)phosphinate] it was 26%; in that of `COP(=O)(O)C(=O)[C@H](CC(C)C)NC(=O)[C@H](CC(C)C)NC(=O)OCc1ccccc1` [Example 65, Methyl Hydrogen N-Benzyloxycarbonyl-L-leucyl-L-leucylphosphonate], 19%.
On the same count and under the same terms, in the case of `CCCCOP(=O)(OCCCC)C(=O)[C@H](CC(C)C)NC(=O)[C@H](CC(C)C)NC(=O)OCc1ccccc1` [Example 66, Dibutyl N-Benzyloxycarbonyl-L-leucyl-L-leucylphosphonate] it was 0%.
Still for that read-out and setting: in the case of `CC(C)C[C@H](NC(=O)OCc1ccccc1)C(=O)N[C@@H](CC(C)C)C(=O)P(=O)(c1ccc(Cl)cc1)c1ccc(Cl)cc1` [Example 67, [Benzyloxycarbonyl-L-leucyl-L-leucyl]bis(4-chlorophenyl)phosphine oxide] it was 4%.
In the case of `CCOP(=O)(C(=O)[C@H](CC(C)C)NC(=O)[C@H](CC(C)C)NC(=O)OCc1ccccc1)c1ccccc1` (stereo partly drawn) [Example 68, Ethyl N-benzyloxycarbonyl-L-leucyl-L-leucyl(phenyl)phosphinate], the inhibition at 0.1 µM was found to be 0%.

Values taken from patent EP1389624A1, “Phosphorous-containing cysteine and serine protease inhibitors” (CEPHALON, INC., priority 1995, dated 1997).
